Reference: US20210387941A1, “Diphenyl-like Compound, Intermediate Thereof, Preparation Method Therefor, Pharmaceutical Composition Thereof And Uses Thereof” (SHANGHAI MAXINOVEL PHARMACEUTICALS CO., LTD., priority 2018, published 2021)

What follows are compounds tested against T1, PD-1/PD-L1 (Homo sapiens, UniProt Q9NZQ7) (assay: Homogeneous Time-Resolved Fluorescence (HTRF) binding test). Settings: CisBio kit #64CUS000C-1, read-out: IC50 values of compounds binding to PD-1/PD-L1.
T1 construct: tag1 or tag2 (identity not disclosed); purchased CisBio 64CUS000C-1
Protocol: The binding ability of the compounds of the present disclosure to PD-1/PD-L1 was detected using Homogeneous Time-Resolved Fluorescence (HTRF) binding test.
The purchased kit (CisBio, #64CUS000C-1) contained the reagents needed for experiments, such as PD-1, PD-L1, anti-tag1-Eu, Anti-tag2-XL665, Dilute Buffer and Detection Buffer.
1. The compound was prepared with 100% DMSO to 10 concentrations with a concentration gradient of 3 times.
2. A solution of the compound in DMSO was added into Dilute Buffer, mixed uniformly, and then transferred into 96-well plate.
3. PD-L1 was diluted with Dilute Buffer, and then added into the above 96-well plate.
4. PD-1 was diluted with Dilute Buffer, and then added into the above 96-well plate and incubated at room temperature for 30 minutes.
5. A part of anti-tag1-Eu and a part of Anti-tag2-XL665 were added into Detection Buffer, mixed uniformly and then transferred into the above 96-well plate.
6. The mixed solution in this 96-well plate was incubated at room temperature for 1 hour to 24 hours.
7. HTRF values were read with Envision.

T1 sequence (Q9NZQ7 19-238 limits assumed): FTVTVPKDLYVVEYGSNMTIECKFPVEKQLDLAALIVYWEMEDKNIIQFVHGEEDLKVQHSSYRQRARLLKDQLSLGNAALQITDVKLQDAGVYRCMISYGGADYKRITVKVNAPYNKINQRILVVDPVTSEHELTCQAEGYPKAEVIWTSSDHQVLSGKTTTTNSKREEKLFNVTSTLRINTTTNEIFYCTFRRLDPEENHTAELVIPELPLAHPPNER

| SMILES | IC50 |
| --- | --- |
| Cc1c(/C=C/c2cc(CNCCO)ccc2C(F)(F)F)cccc1-c1cccc(/C=C/c2cc(CNCCO)ccc2C(F)(F)F)c1C [Compound 1, 2-[({3-[(E)-2-(3-{3-[(E)-2-(5-{[(2-hydroxyethyl)amino]methyl}-2-(trifluoromethyl)phenyl)ethenyl]-2-methylphenyl}-2-methylphenyl)ethenyl]-4-(trifluoromethyl)phenyl}methyl)amino]-1-ethanol] | 6.1 nM |
| COCCOc1ccc(F)c(/C=C/c2cccc(-c3cccc(/C=C/c4cc(CN[C@@](C)(CO)C(=O)O)ccc4C(F)(F)F)c3C)c2C)c1 [Compound 8, (2S)-3-hydroxy-2-[({3-[(E)-2-[3-(3-(E)-{2-[2-fluoro-5-(2-methoxyethoxy)phenyl]ethenyl}-2-methylphenyl)-2-methylphenyl]ethenyl]-4-(trifluoromethyl)phenyl}methyl)amino]-2-methylpropanoic Acid] | 510 nM |
| Cc1c(/C=C/c2cc(CNCCO)ccc2C(F)(F)F)cccc1-c1cccc(-c2cc(CNCCO)ccc2F)c1C [Compound 10, 2-({[(3-(E)-2-{3-[3-(5-{[(2-hydroxyethyl)amino]methyl}-2-fluoro-phenyl)-2-methylphenyl]-2-methylphenyl}ethenyl)-4-(trifluoromethyl)phenyl]methyl}amino)-1-ethanol] | 14 nM |
| Cc1c(/C=C/c2cc(CNCCO)ccc2C(F)(F)F)cccc1-c1cccc(-c2cccc(CNCCO)c2)c1C [Compound 9, 2-({[(3-(E)-2-{3-[3-(3-{[(2-hydroxyethyl)amino]methyl}phenyl)-2-methylphenyl]-2-methylphenyl}ethenyl)-4-(trifluoromethyl)phenyl]methyl}amino)-1-ethanol] | 7.5 nM |
| Cc1c(/C=C/c2cc(CN[C@@](C)(CO)C(=O)O)ccc2C(F)(F)F)cccc1-c1cccc(-c2cc(CN[C@@](C)(CO)C(=O)O)ccc2F)c1C [Compound 11, (2S)-2-[({3-[(E)-2-(3-{3-[5-({[(1S)-1-carboxyl-2-hydroxy-1-methylethyl]amino}methyl)-2-fluorophenyl]-2-methylphenyl}-2-methylphenyl)ethenyl]-4-(trifluoromethyl)phenyl}methyl)amino]-3-hydroxy-2-methylpropanoic acid] | 8.7 nM |

The next compounds have a lower IC50 than those just listed; values first:

| IC50 | SMILES |
| --- | --- |
| 4.7 nM | Cc1c(/C=C/c2cc(CNCCO)ccc2C(F)(F)F)cccc1-c1cccc(/C=C/c2cc(CNCCO)ccc2C(F)(F)F)c1CF [Compound 12, 2-[({3-[(E)-2-(3-{3-[(E)-2-(5-{[(2-hydroxyethyl)amino]methyl}-2-(trifluoromethyl)phenyl)ethenyl]-2-(fluoromethyl)phenyl}-2-methylphenyl)ethenyl]-4-(trifluoromethyl)phenyl}methyl)amino]-1-ethanol] |
| 4.4 nM | Cc1c(/C=C/c2cc(CNCCO)ccc2C(F)(F)F)cccc1-c1cccc(/C=C/c2cc(CN[C@@](C)(CO)C(=O)O)ccc2C(F)(F)F)c1C [Compound 2, (2S)-3-hydroxy-2-[({3-[(E)-2-(3-{3-[(E)-2-(5-{[(2-hydroxyethyl)amino]methyl}-2-(trifluoromethyl)phenyl)ethenyl]-2-methylphenyl}-2-methylphenyl)ethenyl]-4-(trifluoromethyl)phenyl}methyl)amino]-2-methylpropanoic Acid] |
| 4.3 nM | COCCNCc1ccc(C(F)(F)F)c(/C=C/c2cccc(-c3cccc(/C=C/c4cc(CNCCO)ccc4C(F)(F)F)c3C)c2Cl)c1 [Compound 4, 2-[({3-[(E)-2-(3-{3-[(E)-2-(5-{[(2-methoxyethyl)amino]methyl}-2-(trifluoromethyl)phenyl)ethenyl]-2-chlorophenyl}-2-methylphenyl)ethenyl]-4-(trifluoromethyl)phenyl}methyl)amino]-1-ethanol] |
| 3.2 nM | Cc1c(/C=C/c2cc(CN[C@@](C)(CO)C(=O)O)ccc2C(F)(F)F)cccc1-c1cccc(/C=C/c2cc(CN[C@@](C)(CO)C(=O)O)ccc2C(F)(F)F)c1C [Compound 3, (2S)-2-[({3-[(E)-2-(3-{3-[(E)-2-[5-({[(1S)-1-carboxyl-2-hydroxy-1-methylethyl]amino}methyl)-2-(trifluoromethyl)phenyl]ethenyl]-2-methylphenyl}-2-methylphenyl)ethenyl]-4-(trifluoromethyl)phenyl}methyl)amino]-3-hydroxy-2-methylpropanoic Acid] |
| 2.8 nM | Cc1c(/C=C/c2cc(CN[C@@](C)(CO)C(=O)O)ccc2C(F)(F)F)cccc1-c1cccc(/C=C/c2cc(CNCCO)ccc2C(F)(F)F)c1Cl [Compound 6, (2S)-3-hydroxy-2-[({3-[(E)-2-(3-{3-[(E)-2-(5-{[(2-hydroxyethyl)amino]methyl}-2-(trifluoromethyl)phenyl)ethenyl]-2-chlorophenyl}-2-methylphenyl)ethenyl]-4-(trifluoromethyl)phenyl}methyl)amino]-2-methylpropanoic Acid] |
| 2.6 nM | Cc1c(/C=C/c2cc(CNCCO)ccc2C(F)(F)F)cccc1-c1cccc(/C=C/c2cc(CNCCO)ccc2C(F)(F)F)c1Cl [Compound 7, 2-[({3-[(E)-2-(3-{3-[(E)-2-(5-{[(2-hydroxyethyl)amino]methyl}-2-(trifluoromethyl)phenyl)ethenyl]-2-chlorophenyl}-2-methylphenyl)ethenyl]-4-(trifluoromethyl)phenyl}methyl)amino]-1-ethanol] |
| 2.3 nM | COCCNCc1ccc(C(F)(F)F)c(/C=C/c2cccc(-c3cccc(/C=C/c4cc(CN[C@@](C)(CO)C(=O)O)ccc4C(F)(F)F)c3C)c2Cl)c1 [Compound 5, (2S)-3-hydroxy-2-[({3-[(E)-2-(3-{3-[(E)-2-(5-{[(2-methoxyethyl)amino]methyl}-2-(trifluoromethyl)phenyl)ethenyl]-2-chlorophenyl}-2-methylphenyl)ethenyl]-4-(trifluoromethyl)phenyl}methyl)amino]-2-methylpropanoic Acid] |
